Measurements reported in patent US20190285619A1, “VIRUS INFECTION MODEL, PREPARATION METHOD THEREFOR, AND UTILIZATION THEREOF” (priority 2015, published 2019).

System: HBV
Experiment: Inhibition of HBV infection of human liver buds by drugs (intracellular HBV 3.5k RNA and HBV DNA in culture supernatant)
Type: cell-based
Conditions: HBV 5,000 copies per cell, cultured for 10 days, FIG. 8, vs Con
Method: The endodermal cells obtained, vascular endothelial cells (human umbilical vein-derived endothelial cells) (Lonza, Basel, Switzerland) and undifferentiated mesenchymal cells (human bone marrow-derived mesenchymal stem cells) (Lonza, Basel, Switzerland) were mixed at 10:7:1 (400 cells: 280 cells: 40 cells per organ bud) to prepare human liver buds (120-150 μm in size).
The human liver buds prepared in (2) above were cultured in DMSO-containing medium for 7 days and further cultured in HGF-, OSM- and DEX-containing medium for 7 days, followed by infection with HBV. HBV was recovered from culture supernatant of HepG2.2.15 cells which had been prepared by transferring the intact HBV genome (genotype D) into human hepatoma cell line HepG2 by lipofection. The liver buds were infected with approx. 500 copies of HBV per endodermal cell in 4% PEG8000-containing medium and cultured for about 30 days.
(5) Culture supernatants of human liver buds and human iPS-cell derived hepatocytes were recovered at days 10, 20 and 30 post HBV infection, followed by measurement of HBV DNA. (6) Human liver buds and human iPS-cell derived hepatocytes were recovered at days 10, 20 and 30 post HBV infection, followed by measurement of HBV 3.5k RNA. (7) The inside of human liver buds was immunostained with HBc antibody at days 10, 20 and 30 post HBV infection. (8) Human primary hepatocytes (PXB cells; Phoenix Bio) were infected with the culture supernatant of human liver buds at day 20 post HBV infection. (9) Human liver buds and human iPS-cell derived hepatocytes were recovered at day 20 post HBV infection, followed by measurement of covalently closed circular DNA (cccDNA). (10) Human liver buds at day 10 post HBV infection and non-HBV-infected human liver buds in the corresponding period were fixed with paraformaldehyde and glutaraldehyde, and electron micrographs were taken. (11) Human liver buds were infected with HBV (5,000 copies per cell). […] Intracellular HBV 3.5k RNA and HBV DNA in culture supernatant were measured.

C=C1[C@H](CO)[C@@H](O)C[C@@H]1n1cnc2c(=O)[nH]c(N)nc21 [ETV, entecavir, reference compound]
infection of human liver bud with HBV (entecavir): inhibited

interferon α [IFN-α]
infection of human liver bud with HBV (interferon α 1000 U/ml): inhibited

interferon γ [IFN-γ]
infection of human liver bud with HBV (interferon γ 1000 U/ml): inhibited
